# According to patent US20260014232A1, “Pharmaceutical Composition of GLP-1 and GIP Receptor Dual Agonist and Use Thereof” (Jiangsu Hengrui Pharmaceuticals Co., Ltd., priority 2021, published 2026):
# Starred links: 1 amine or outer side, 2 acyl side, 3 side chain; linkers in the order of their positions; H or OH if unused. Non-standard residues stand in square brackets, D forms with d. Residues, ends and D or L forms follow the SMILES beside them. Groups on a side chain read outwards from the residue. *: point of attachment. C20 diacid = O=C(O)CCCCCCCCCCCCCCCCCCC(=O)*; γGlu = O=C(O)[C@H](CCC(=O)[*:2])N[*:1]; AEEA = NCCOCCOCC(=O)O; Aib = CC(C)(N)C(=O)O
# How the values were obtained:
# [1] = Glucose metabolism level of db/db mice (fasting and random blood glucose, glycated hemoglobin); format: in vivo, C57BL/KsJ-db/db mice; settings: for Glycated hemoglobin: end of experiment day 28, mean ± SD
# Description: Each administration group had 10 db/db mice. According to the experimental design, tail vein blood was collected by needle pricking on days 0, 7, 14, 21, and 28 and determined for fasting blood glucose levels with a glucometer and glucose dipsticks, and the mice were fasted 6 h prior to the blood collection at each time point. Tail vein blood was collected by needle pricking on days 3, 10, 17, 24, and 27 and randomly determined for blood glucose levels with a glucometer. Finally, at the end of the experiment on day 28, all the animals in the administration groups were subjected to 2-5% isoflurane inhalation anesthesia, and 100 μL of whole blood was collected through the orbit of each mouse using an EDTA-K2 anticoagulation tube and used for the determination of glycated hemoglobin.
# [2] = Food intake of diet-induced-obesity (DIO) mice; format: in vivo, C57BL/6 mice
# Description: High-fat food-induced-obesity male C57BL/6 mice (weighing 35-55 g, aged 10-12 weeks, purchased from Shanghai Jiesijie Laboratory Animal Co., Ltd.) were tested. […] According to the experimental design, the body weight of each mouse was measured and recorded on day 0, day 3, day 6, and so on to day 27, the average body weight of each group of mice was calculated, and body weight change curves were plotted by taking the body weight on the first day as the standard. At the end, the fat and other visceral organs of each part of the mice were taken out and weighed, and the viscera/brain ratio for fat in each part of each mouse was calculated. The effect of the drug on the fat was determined by comparing the change in the viscera/brain ratio for fat of different parts of each group of mice.
# The food intake of mice in each group was measured daily during the experiment.
# [3] = 10 nmol/kg s.c., Day 0, mean ± SD
# [4] = 30 nmol/kg s.c., Day 0, mean ± SD
# [5] = 100 nmol/kg s.c., Day 0, mean ± SD
compound,measurement,setting,value
CC[C@H](C)[C@H](NC(=O)[C@H](CCCCN)NC(=O)[C@H](CCC(=O)O)NC(=O)[C@H](CCCCNC(=O)COCCOCCNC(=O)COCCOCCNC(=O)CC[C@H](NC(=O)CCCCCCCCCCCCCCCCCCC(=O)O)C(=O)O)NC(=O)[C@H](Cc1ccc(O)cc1)NC(=O)[C@@H](NC(=O)[C@H](CO)NC(=O)[C@H](Cc1ccc(O)cc1)NC(=O)[C@H](CC(=O)O)NC(=O)[C@H](CO)NC(=O)[C@@H](NC(=O)[C@H](Cc1ccccc1)NC(=O)[C@@H](NC(=O)CNC(=O)[C@H](CCC(=O)O)NC(=O)C(C)(C)NC(=O)[C@@H](N)Cc1ccc(O)cc1)[C@@H](C)O)[C@@H](C)O)[C@@H](C)CC)C(=O)N[C@@H](C)C(=O)N[C@@H](C)C(=O)N[C@@H](CCC(N)=O)C(=O)N[C@@H](CCC(=O)O)C(=O)N[C@@H](Cc1ccccc1)C(=O)N[C@H](C(=O)N[C@@H](CC(N)=O)C(=O)N[C@@H](Cc1c[nH]c2ccccc12)C(=O)N[C@@H](CC(C)C)C(=O)N[C@@H](CC(C)C)C(=O)N[C@@H](C)C(=O)NCC(=O)NCC(=O)N1CCC[C@H]1C(=O)N[C@@H](CO)C(=O)N[C@@H](CO)C(=O)NCC(=O)N[C@@H](C)C(=O)N1CCC[C@H]1C(=O)N1CCC[C@H]1C(=O)N1CCC[C@H]1C(=O)N[C@@H](CO)C(N)=O)C(C)C [Compound 18#] (H-Y[Aib]EGTFTSDYSIYK([AEEA-AEEA-γGlu-C20 diacid])EKIAAQEFVNWLLAGGPSSGAPPPS-NH2),Concentration of fasting blood glucose,[1]; [3],14.77 ± 1.30 mmol/L
same,Concentration of random blood glucose,[1]; [3],20.42 ± 1.56 mmol/L
same,Concentration of fasting blood glucose,"[1]; 10 nmol/kg s.c., Day 7, mean ± SD",6.05 ± 0.42 mmol/L
same,Concentration of random blood glucose,"[1]; 10 nmol/kg s.c., Day 10, mean ± SD",20.66 ± 1.48 mmol/L
same,Concentration of fasting blood glucose,"[1]; 10 nmol/kg s.c., Day 14, mean ± SD",6.30 ± 0.46 mmol/L
same,Concentration of random blood glucose,"[1]; 10 nmol/kg s.c., Day 17, mean ± SD",18.91 ± 1.33 mmol/L
same,Concentration of fasting blood glucose,"[1]; 10 nmol/kg s.c., Day 21, mean ± SD",7.89 ± 0.81 mmol/L
same,Concentration of random blood glucose,"[1]; 10 nmol/kg s.c., Day 24, mean ± SD",21.17 ± 2.07 mmol/L
same,Concentration of fasting blood glucose,"[1]; 10 nmol/kg s.c., Day 28, mean ± SD",9.41 ± 0.97 mmol/L
same,Glycated hemoglobin,[1]; 10 nmol/kg s.c.,4.71 ± 0.23 %
same,Concentration of fasting blood glucose,[1]; [4],14.13 ± 1.32 mmol/L
same,Concentration of random blood glucose,[1]; [4],16.73 ± 1.59 mmol/L
same,Concentration of fasting blood glucose,"[1]; 30 nmol/kg s.c., Day 7, mean ± SD",6.21 ± 0.26 mmol/L
same,Concentration of random blood glucose,"[1]; 30 nmol/kg s.c., Day 10, mean ± SD",15.88 ± 1.86 mmol/L
same,Concentration of fasting blood glucose,"[1]; 30 nmol/kg s.c., Day 14, mean ± SD",6.40 ± 0.57 mmol/L
same,Concentration of random blood glucose,"[1]; 30 nmol/kg s.c., Day 17, mean ± SD",17.30 ± 1.17 mmol/L
same,Concentration of fasting blood glucose,"[1]; 30 nmol/kg s.c., Day 21, mean ± SD",7.03 ± 0.52 mmol/L
same,Concentration of random blood glucose,"[1]; 30 nmol/kg s.c., Day 24, mean ± SD",17.43 ± 1.92 mmol/L
same,Concentration of fasting blood glucose,"[1]; 30 nmol/kg s.c., Day 28, mean ± SD",9.68 ± 1.03 mmol/L
same,Glycated hemoglobin,[1]; 30 nmol/kg s.c.,4.53 ± 0.17 %
same,Concentration of fasting blood glucose,[1]; [5],14.67 ± 1.46 mmol/L
same,Concentration of random blood glucose,[1]; [5],9.11 ± 1.25 mmol/L
same,Concentration of fasting blood glucose,"[1]; 100 nmol/kg s.c., Day 7, mean ± SD",5.85 ± 0.33 mmol/L
same,Concentration of random blood glucose,"[1]; 100 nmol/kg s.c., Day 10, mean ± SD",12.34 ± 1.12 mmol/L
same,Concentration of fasting blood glucose,"[1]; 100 nmol/kg s.c., Day 14, mean ± SD",6.25 ± 0.32 mmol/L
same,Concentration of random blood glucose,"[1]; 100 nmol/kg s.c., Day 17, mean ± SD",11.89 ± 1.15 mmol/L
same,Concentration of fasting blood glucose,"[1]; 100 nmol/kg s.c., Day 21, mean ± SD",6.13 ± 0.19 mmol/L
same,Concentration of random blood glucose,"[1]; 100 nmol/kg s.c., Day 24, mean ± SD",11.51 ± 0.95 mmol/L
same,Concentration of fasting blood glucose,"[1]; 100 nmol/kg s.c., Day 28, mean ± SD",7.89 ± 0.41 mmol/L
same,Glycated hemoglobin,"[1]; 100 nmol/kg s.c., listed as 18 #",3.78%
same,Glycated hemoglobin,"[1]; 100 nmol/kg s.c., listed as #18",3.78 ± 0.13 %
same,cumulative food intake 28 days after the administration,[2]; 3 nmol/kg,58.2 g
same,cumulative food intake within 5 days after the administration,[2]; 3 nmol/kg,7.2 g
same,daily food intake,"[2]; 3 nmol/kg, day 1, listed as 18 #",0.6 g
same,daily food intake,"[2]; 3 nmol/kg, day 1, listed as 18#",0.6 g
same,daily food intake,"[2]; 3 nmol/kg, day 2",1.3 g
same,daily food intake,"[2]; 3 nmol/kg, day 3",2 g
same,daily food intake,"[2]; 3 nmol/kg, day 4",1.1 g
same,daily food intake,"[2]; 3 nmol/kg, day 5",2.2 g
same,daily food intake,"[2]; 3 nmol/kg, day 6",2.1 g
same,daily food intake,"[2]; 3 nmol/kg, day 7",1.1 g
same,daily food intake,"[2]; 3 nmol/kg, day 8",1.6 g
same,daily food intake,"[2]; 3 nmol/kg, day 9",2.5 g
same,daily food intake,"[2]; 3 nmol/kg, day 10",1.3 g
same,daily food intake,"[2]; 3 nmol/kg, day 11",2 g
same,daily food intake,"[2]; 3 nmol/kg, day 12",3 g
same,daily food intake,"[2]; 3 nmol/kg, day 13",1.8 g
same,daily food intake,"[2]; 3 nmol/kg, day 14",2.3 g
same,daily food intake,"[2]; 3 nmol/kg, day 15",2.9 g
same,daily food intake,"[2]; 3 nmol/kg, day 16",1.5 g
same,daily food intake,"[2]; 3 nmol/kg, day 17",2.2 g
same,daily food intake,"[2]; 3 nmol/kg, day 18",2.7 g
same,daily food intake,"[2]; 3 nmol/kg, day 19",1.7 g
same,daily food intake,"[2]; 3 nmol/kg, day 20",2.2 g
same,daily food intake,"[2]; 3 nmol/kg, day 21",3.4 g
same,daily food intake,"[2]; 3 nmol/kg, day 22",1.8 g
same,daily food intake,"[2]; 3 nmol/kg, day 23",2.6 g
same,daily food intake,"[2]; 3 nmol/kg, day 24",2.9 g
same,daily food intake,"[2]; 3 nmol/kg, day 25",1.8 g
same,daily food intake,"[2]; 3 nmol/kg, day 26",2.5 g
same,daily food intake,"[2]; 3 nmol/kg, day 27",3.9 g
same,daily food intake,"[2]; 3 nmol/kg, day 28",1.3 g
same,cumulative food intake 28 days after the administration,[2]; 10 nmol/kg,46.8 g
same,cumulative food intake within 5 days after the administration,[2]; 10 nmol/kg,3.9 g
same,daily food intake,"[2]; 10 nmol/kg, day 1, listed as 18 #",0.3 g
same,daily food intake,"[2]; 10 nmol/kg, day 1, listed as 18#",0.3 g
same,daily food intake,"[2]; 10 nmol/kg, day 2",0.6 g
same,daily food intake,"[2]; 10 nmol/kg, day 3",1.1 g
same,daily food intake,"[2]; 10 nmol/kg, day 4",0.7 g
same,daily food intake,"[2]; 10 nmol/kg, day 5",1.1 g
same,daily food intake,"[2]; 10 nmol/kg, day 6",1.5 g
same,daily food intake,"[2]; 10 nmol/kg, day 7",0.8 g
same,daily food intake,"[2]; 10 nmol/kg, day 8",1.1 g
same,daily food intake,"[2]; 10 nmol/kg, day 9",2 g
same,daily food intake,"[2]; 10 nmol/kg, day 10",0.9 g
same,daily food intake,"[2]; 10 nmol/kg, day 11",1.8 g
same,daily food intake,"[2]; 10 nmol/kg, day 12",2.4 g
same,daily food intake,"[2]; 10 nmol/kg, day 13",0.9 g
same,daily food intake,"[2]; 10 nmol/kg, day 14",1.7 g
same,daily food intake,"[2]; 10 nmol/kg, day 15",3 g
same,daily food intake,"[2]; 10 nmol/kg, day 16",1.2 g
same,daily food intake,"[2]; 10 nmol/kg, day 17",2.1 g
same,daily food intake,"[2]; 10 nmol/kg, day 18",2.9 g
same,daily food intake,"[2]; 10 nmol/kg, day 19",1.3 g
same,daily food intake,"[2]; 10 nmol/kg, day 20",2 g
same,daily food intake,"[2]; 10 nmol/kg, day 21",3.2 g
same,daily food intake,"[2]; 10 nmol/kg, day 22",1 g
same,daily food intake,"[2]; 10 nmol/kg, day 23",2.3 g
same,daily food intake,"[2]; 10 nmol/kg, day 24",2.5 g
same,daily food intake,"[2]; 10 nmol/kg, day 25",1.6 g
same,daily food intake,"[2]; 10 nmol/kg, day 26",2.2 g
same,daily food intake,"[2]; 10 nmol/kg, day 27",3.6 g
same,daily food intake,"[2]; 10 nmol/kg, day 28",1 g
same,cumulative food intake 28 days after the administration,[2]; 100 nmol/kg,36.7 g
same,cumulative food intake within 5 days after the administration,[2]; 100 nmol/kg,1.8 g
same,daily food intake,"[2]; 100 nmol/kg, day 1, listed as 18 #",0.2 g
same,daily food intake,"[2]; 100 nmol/kg, day 1, listed as 18#",0.2 g
same,daily food intake,"[2]; 100 nmol/kg, day 2",0.1 g
same,daily food intake,"[2]; 100 nmol/kg, day 3",0.4 g
same,daily food intake,"[2]; 100 nmol/kg, day 4",0.4 g
same,daily food intake,"[2]; 100 nmol/kg, day 5",0.6 g
same,daily food intake,"[2]; 100 nmol/kg, day 6",0.7 g
same,daily food intake,"[2]; 100 nmol/kg, day 7",0.5 g
same,daily food intake,"[2]; 100 nmol/kg, day 8",0.7 g
same,daily food intake,"[2]; 100 nmol/kg, day 9",0.9 g
same,daily food intake,"[2]; 100 nmol/kg, day 10",0.9 g
same,daily food intake,"[2]; 100 nmol/kg, day 11",1.1 g
same,daily food intake,"[2]; 100 nmol/kg, day 12",2 g
same,daily food intake,"[2]; 100 nmol/kg, day 13",1.3 g
same,daily food intake,"[2]; 100 nmol/kg, day 14",1.7 g
same,daily food intake,"[2]; 100 nmol/kg, day 15",2 g
same,daily food intake,"[2]; 100 nmol/kg, day 16",1 g
same,daily food intake,"[2]; 100 nmol/kg, day 17",1.6 g
same,daily food intake,"[2]; 100 nmol/kg, day 18",2 g
same,daily food intake,"[2]; 100 nmol/kg, day 19",1.4 g
same,daily food intake,"[2]; 100 nmol/kg, day 20",1.8 g
same,daily food intake,"[2]; 100 nmol/kg, day 21",2.4 g
same,daily food intake,"[2]; 100 nmol/kg, day 22",1.4 g
same,daily food intake,"[2]; 100 nmol/kg, day 23",2.1 g
same,daily food intake,"[2]; 100 nmol/kg, day 24",2.3 g
same,daily food intake,"[2]; 100 nmol/kg, day 25",1.5 g
same,daily food intake,"[2]; 100 nmol/kg, day 26",1.6 g
same,daily food intake,"[2]; 100 nmol/kg, day 27",2.8 g
same,daily food intake,"[2]; 100 nmol/kg, day 28",1.2 g
